Results on 36 molecules are retold here after ChEMBL document CHEMBL1201862, “PubChem BioAssay data set” (2004).

In data set [1] the target is T1, Rac GTPase-activating protein 1 (Homo sapiens, UniProt Q9H0H5).
T1 sequence (Q9H0H5 whole entry): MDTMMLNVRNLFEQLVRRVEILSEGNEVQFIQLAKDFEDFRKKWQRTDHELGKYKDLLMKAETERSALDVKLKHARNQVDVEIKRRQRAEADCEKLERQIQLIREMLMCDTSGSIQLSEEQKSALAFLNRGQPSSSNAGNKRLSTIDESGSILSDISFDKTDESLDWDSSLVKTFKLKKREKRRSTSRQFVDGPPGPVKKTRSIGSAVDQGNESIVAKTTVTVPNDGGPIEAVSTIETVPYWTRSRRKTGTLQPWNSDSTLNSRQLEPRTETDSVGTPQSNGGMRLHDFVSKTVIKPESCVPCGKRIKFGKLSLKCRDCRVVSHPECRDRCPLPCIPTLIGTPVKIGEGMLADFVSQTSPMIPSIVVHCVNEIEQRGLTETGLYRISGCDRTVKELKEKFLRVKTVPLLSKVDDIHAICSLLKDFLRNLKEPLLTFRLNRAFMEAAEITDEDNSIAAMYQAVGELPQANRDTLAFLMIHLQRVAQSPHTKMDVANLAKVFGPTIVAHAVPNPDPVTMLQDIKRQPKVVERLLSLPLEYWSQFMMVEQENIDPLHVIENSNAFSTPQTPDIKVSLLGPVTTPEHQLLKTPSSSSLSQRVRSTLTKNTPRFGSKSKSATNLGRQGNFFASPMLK
Put plainly: blockers of MgcRacGAP-driven Rac1 GTP hydrolysis – biochemical, ADP Hunter fluorescence, primary and confirmatory, confirmation (AID 624330). It is filed as functional.

Data set [2] is described as follows: luciferase reporter signal suppression in cells – H4 neuroglioma cells, luminescence, dose response (AID 1990). The data set is classed as functional, cell-based.
A short description of data set [3]: Luminescence Cell-Based Dose Response HTS to Identify Inhibitors of 5'UTR Stem-Loop Driven Prion Protein mRNA Translation in H4 Neuroglioblastoma Cells. [Related pubchem assays: 1827 (Project Summary), 1813 (Primary HTS)]. It is filed as functional.
Data set [4] can be described thus: alpha-synuclein stem-loop luciferase translation blockers – H4 neuroglioma cells, luminescence, confirmation (AID 1988). It is filed as functional, cell-based.
Data set [5] has as its target T2, Cytochrome P450 1A2 (Homo sapiens, UniProt P05177).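 Further: PubChem cytochrome P450 panel assay, CYP1A2 panel member.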
T2 sequence (P05177 whole entry): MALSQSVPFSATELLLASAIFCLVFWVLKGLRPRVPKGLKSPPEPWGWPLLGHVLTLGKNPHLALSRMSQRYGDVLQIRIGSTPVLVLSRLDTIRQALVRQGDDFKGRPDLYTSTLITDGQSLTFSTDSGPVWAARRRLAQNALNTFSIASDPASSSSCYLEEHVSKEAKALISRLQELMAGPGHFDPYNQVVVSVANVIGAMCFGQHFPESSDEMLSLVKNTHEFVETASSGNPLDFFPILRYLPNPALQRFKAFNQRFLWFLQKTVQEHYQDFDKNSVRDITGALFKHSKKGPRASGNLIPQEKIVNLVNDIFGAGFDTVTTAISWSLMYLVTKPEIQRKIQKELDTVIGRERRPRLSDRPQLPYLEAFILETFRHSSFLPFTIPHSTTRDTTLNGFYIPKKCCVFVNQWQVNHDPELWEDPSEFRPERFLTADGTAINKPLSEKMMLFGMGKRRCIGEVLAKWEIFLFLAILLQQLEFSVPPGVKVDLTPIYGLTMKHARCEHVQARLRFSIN

Data set [6] deals with Cytochrome P450 2C19 (Homo sapiens, UniProt P33261). Put plainly: Cytochrome panel assay with activity outcomes. Panel member name: p450-cyp2c19 Compounds with AC50 equal or less than 10 uM are considered active. It is filed as functional.
Cytochrome P450 2C19, sequence (P33261 whole entry): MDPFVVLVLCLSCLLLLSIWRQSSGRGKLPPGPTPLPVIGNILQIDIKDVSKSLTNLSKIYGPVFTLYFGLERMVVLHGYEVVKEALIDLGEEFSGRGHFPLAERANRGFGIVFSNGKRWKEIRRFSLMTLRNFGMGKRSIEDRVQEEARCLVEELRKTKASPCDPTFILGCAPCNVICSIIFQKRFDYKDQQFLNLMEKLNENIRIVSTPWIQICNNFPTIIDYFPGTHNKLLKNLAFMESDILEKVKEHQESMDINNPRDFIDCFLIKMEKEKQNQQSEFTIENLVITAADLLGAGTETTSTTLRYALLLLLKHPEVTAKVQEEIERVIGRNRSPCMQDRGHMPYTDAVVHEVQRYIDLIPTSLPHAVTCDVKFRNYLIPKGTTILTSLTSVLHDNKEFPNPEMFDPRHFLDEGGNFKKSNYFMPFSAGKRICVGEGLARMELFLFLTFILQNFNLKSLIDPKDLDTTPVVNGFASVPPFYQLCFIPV
Data set [7] concerns the target Cytochrome P450 2C9 (Homo sapiens, UniProt P11712).
Data set [8] concerns H4. Put plainly: Luminescence Cell-Based Dose Response HTS to Identify Activators of 5'UTR Stem-Loop Driven Prion Protein mRNA Translation in H4 Neuroglioblastoma Cells. [Related pubchem assays: 1829 (Project Summary), 1814 (Primary HTS)]. The data set is classed as functional. To be noted: Homo sapiens.
Data set [9] has as its system Streptococcus sp. 'group A'. Kind of data set: Streptococcus pyogenes SK(-)GAS viability under kanamycin – luminescence, BacTiterGlo, confirmation, counter-screen for streptokinase expression inhibitor project, dose response (AID 1900). It is filed as functional, organism-based.
For data set [10], the target named is T3, Streptokinase A (Streptococcus pyogenes serotype M1, UniProt P10520).
T3 sequence (P10520 whole entry): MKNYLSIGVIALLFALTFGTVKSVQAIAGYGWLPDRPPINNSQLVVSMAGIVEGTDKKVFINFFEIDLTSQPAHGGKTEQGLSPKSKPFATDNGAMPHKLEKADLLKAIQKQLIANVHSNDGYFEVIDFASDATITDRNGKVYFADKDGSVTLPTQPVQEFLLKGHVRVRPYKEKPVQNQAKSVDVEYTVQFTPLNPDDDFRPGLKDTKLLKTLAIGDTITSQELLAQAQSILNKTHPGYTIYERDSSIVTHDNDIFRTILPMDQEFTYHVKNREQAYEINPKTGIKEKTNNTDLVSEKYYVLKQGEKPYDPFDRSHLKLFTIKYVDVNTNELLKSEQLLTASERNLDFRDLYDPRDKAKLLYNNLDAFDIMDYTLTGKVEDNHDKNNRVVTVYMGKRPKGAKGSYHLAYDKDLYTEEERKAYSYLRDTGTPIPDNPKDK
Put plainly: viability-normalized secreted streptokinase activity reduction – plasminogen activation absorbance, OD405, dose response (AID 1914).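 Further: secreted streptokinase activity via plasminogen activation per viability signal from cell pellet.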 It is filed as functional, Streptococcus pyogenes M1 GAS.

Data set [11] deals with Streptococcus. Put plainly: GAS UMAA2166 growth inhibition – luminescence, BacTiterGlo, counter-screen for streptokinase expression inhibitor project, dose response (AID 1915).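 Further: potency for reduction of bacterial viability or growth.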 It is filed as functional, organism-based.
The target of data set [12] is T4, Heat shock factor protein 1 (Mus musculus, UniProt P38532).
T4 sequence (P38532 whole entry): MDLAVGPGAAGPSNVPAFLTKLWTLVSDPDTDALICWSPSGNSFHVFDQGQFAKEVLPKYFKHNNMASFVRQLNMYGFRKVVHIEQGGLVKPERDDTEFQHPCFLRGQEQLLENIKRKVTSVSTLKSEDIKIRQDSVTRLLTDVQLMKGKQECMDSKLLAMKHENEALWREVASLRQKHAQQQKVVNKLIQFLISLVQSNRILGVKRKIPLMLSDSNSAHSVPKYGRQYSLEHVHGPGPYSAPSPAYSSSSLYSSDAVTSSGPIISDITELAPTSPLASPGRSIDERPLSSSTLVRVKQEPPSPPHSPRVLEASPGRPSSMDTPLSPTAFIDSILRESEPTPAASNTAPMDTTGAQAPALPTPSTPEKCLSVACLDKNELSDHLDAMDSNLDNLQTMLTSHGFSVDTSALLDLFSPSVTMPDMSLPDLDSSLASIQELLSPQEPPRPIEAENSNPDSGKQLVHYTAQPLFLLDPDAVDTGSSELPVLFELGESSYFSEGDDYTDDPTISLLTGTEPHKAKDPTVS
Kind of data set: enhancement of HSF1-driven luciferase signal – cell-based, NIH3T3, luminescence, dose retest, confirmation (AID 435004).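 Further: stress induced by proteasome inhibitor MG132 added 30 min after compound; luciferase reporter driven by HSF1 response element in NIH3T3 cells; actives raise luminescence as potentiators of the MG132 stress response.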 The data set is classed as functional.

The source made the active and inactive calls. Some results are limits rather than exact numbers.

Cytochrome P450 2C9, sequence (P11712 whole entry): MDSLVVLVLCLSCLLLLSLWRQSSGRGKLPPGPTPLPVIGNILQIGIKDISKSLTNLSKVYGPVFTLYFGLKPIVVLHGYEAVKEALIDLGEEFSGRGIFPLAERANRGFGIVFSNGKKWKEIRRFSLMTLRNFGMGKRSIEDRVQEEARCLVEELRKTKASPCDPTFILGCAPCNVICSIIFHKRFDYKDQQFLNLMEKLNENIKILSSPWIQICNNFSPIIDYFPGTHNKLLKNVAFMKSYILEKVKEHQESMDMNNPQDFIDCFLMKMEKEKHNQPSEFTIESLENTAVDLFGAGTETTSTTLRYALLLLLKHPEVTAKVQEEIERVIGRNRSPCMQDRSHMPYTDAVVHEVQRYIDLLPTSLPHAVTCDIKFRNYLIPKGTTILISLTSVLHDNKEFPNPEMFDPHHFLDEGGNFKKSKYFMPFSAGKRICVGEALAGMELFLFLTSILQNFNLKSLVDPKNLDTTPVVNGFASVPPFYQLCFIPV

In the case of `COc1ccc(NC2CCCN(C(=O)c3ccccc3C(F)(F)F)C2)cc1` (stereo unspecified), in data set [1], the half-maximal inhibitory concentration (IC50) – broadly, the concentration that gives 50% inhibition – was 75.2 µM (active).
As to `CCOC(=O)c1oc2cc(OC(C)=O)ccc2c(=O)c1-c1ccc(OC)c(OC)c1`, the concentration for a half-maximal effect (EC50) in [2], in data set [3] and in [4] was > 120 µM (not active) in each case.
Take `CCC/C=C(\CCC)C(NP(=O)(c1ccccc1)c1ccccc1)c1ccc(-c2ccccc2)cc1` (stereo unspecified): the AC50 – broadly, the midpoint of the concentration-response curve, whichever way the signal moves – in data set [5] was 2.51 µM (inconclusive).
`Oc1nc(N2CCCCCC2)nc(N2CCCCCC2)n1`: the AC50 is 22.4 µM (inconclusive) in [5] and 5.62 µM (inconclusive) in data set [6] (read-out: AC50).
In the case of `COc1cc(N=Nc2ccc(C(=O)N(C)C)cc2)c(C)cc1N`, the half-inhibitory concentration (IC50) in data set [1] is 52.9 µM (active).
Same read-out and setting: as for `Fc1ccccc1Nc1nnc(S)s1`, the figure is 54.3 µM (active).
Consider `COc1ccc(/C=C(/C(=O)Nc2ccccc2C(=O)NC(C)C)c2ccccc2)cc1`, for which the concentration giving a half-maximal response (EC50) – broadly, the midpoint of the concentration-response curve – in data set [2] is 13.7 µM (active); in data set [3], 83.5 µM (active); in [4] it was 30.2 µM (active).
In the case of `CN(C)c1ccc(-c2cc(-n3ccnc3)ncn2)cc1`, in data set [7], the half-maximal activity concentration (AC50) was 0.794 µM (inconclusive).
For the molecule `CN(Cc1ccccc1)C(=O)CC(c1ccccc1)c1cc(Cl)ccc1O` (stereo unspecified), the AC50 in data set [5] was 25.1 µM (inconclusive).
Regarding `CCN=C(S)Nc1cc(Cl)ccc1Oc1ccccc1`, the concentration giving a half-maximal response (EC50) in data set [2], in [3] and in data set [4] was > 120 µM (not active) in each case.
For the molecule `O=C(Nc1cccc(OC(=O)c2cccnc2)c1)c1cccnc1`, the AC50 in data set [7] was 28.2 µM (inconclusive).
Same read-out and setting: as for `COc1cc(OC)cc(C(=O)NC(=S)Nc2ccc(Cl)c(C(=O)O)c2)c1`, the figure is 12.6 µM (inconclusive).
Consider `O=C(COc1ccccc1)Nc1ccc(-c2nnc(-c3ccco3)o2)cc1`, for which the AC50 in [7] is 1.78 µM (inconclusive); in data set [6] (read-out: AC50), 10 µM (inconclusive).
`CN(C)S(=O)(=O)c1ccc(Cl)c(NC(=O)COC(=O)CN2C(=O)C3CCCCC3C2=O)c1` (stereo unspecified): the EC50 in [2], in data set [3] and in [4] was > 120 µM (not active) in each case.
Turning to `COc1ccc(C(=O)N/C(=C/c2cccs2)C(=O)NCCCn2ccnc2)cc1OC`, the concentration at half-maximal activity (AC50) in [7] was 5.01 µM (inconclusive); in data set [6] (read-out: AC50), 8.91 µM (inconclusive).
For the molecule `CCCCN(C)CCNC(=O)CSCc1ccc(C)cc1`, the half-inhibitory concentration (IC50) in [1] is 220 µM (active).
With `O=C(Nc1ccccc1)c1cc([N+](=O)[O-])ccc1NC1CCCCC1`, the concentration for a half-maximal effect (EC50) in data set [2] was 16.4 µM (active); in [3], > 120 µM (not active); in data set [4] it was > 120 µM (not active).
With `CSc1nncc(-c2ccc(F)c(F)c2)n1`, the AC50 in data set [7] is 28.2 µM (inconclusive).
Take `NS(=O)(=O)c1nc(S(=O)(=O)O)c2[nH]cnc2n1`: the AC50 in data set [5] was 5.01 µM (inconclusive); in data set [6], “inconclusive”.
As for `COc1ccc(C2CC(c3ccc4ccccc4c3)=NN2C(=O)COC(=O)C2CCC(=O)N2)cc1` (stereo unspecified), the concentration for a half-maximal effect (EC50) in data set [8] was 66.5 µM (active).
Consider `COc1ccc(C(=O)/C=C/c2ccc(O)cc2)c2c1CC(O)C(C)(C)O2` (stereo unspecified), for which the IC50 in [1] is 56.9 µM (active).
Same read-out and setting: as for `COc1ccccc1N1CCN(Cc2cccc(Br)c2)CC1`, the figure is 130 µM (active).
Consider `CCOC(=O)c1c(C)[nH]c(C)c1C(=O)CSc1nc2ccccc2c(=O)n1-c1ccc(C)cc1`, for which the EC50 in [2] was 13.4 µM (active); in data set [3] it was > 120 µM (not active); in data set [4], > 120 µM (not active).
On to `COc1ccc(N2CCN(C(=O)c3ccc(C[S+]([O-])c4cccc(Cl)c4)o3)CC2)cc1` (stereo unspecified), for which the IC50 in [1] is 326 µM (active).
For the molecule `CC(C)CN(Cc1cc(=O)oc2cc(-c3ccccc3)c(O)cc12)CC(C)C`, the EC50 is 5.29 µM (active) in data set [9]; 12.1 µM (active) in [2]; 2.43 µM (active) in data set [10]; > 120 µM (not active) in data set [3]; 14.3 µM (active) in [11]; > 120 µM (not active) in data set [4].
Turning to `COc1cc(C(=O)NCC2CCCO2)ccc1OCc1ccc(Cl)cc1Cl` (stereo unspecified), in data set [12], the EC50 is 104 µM (active).
`COc1cccc(CN2CCN(Cc3cccc(F)c3)CC2)c1`: the IC50 in [1] was 86 µM (active).
As for `CCc1ccc(/C=C2/C(=O)N(c3ccccc3)C(=S)N2CC(=O)OC)s1`, the figures for the concentration giving a half-maximal response (EC50) in data set [2], in [3] and in data set [4] were > 120 µM (not active), 11.2 µM (active) and 14.4 µM (active), respectively.
Taken in the same sequence, the figures for `ClC1(Cl)CC1Cn1c(C2CC2)nc2ccccc21` (stereo unspecified) were > 120 µM (not active), > 120 µM (not active) and > 120 µM (not active).
Turning to `COc1cccc(-c2c(C#N)c(N)nc3c2c(C)nn3-c2ccccc2)c1O`, the EC50 in data set [12] was 57.9 µM (active).
In the case of `CO[C@@H]1/C=C\O[C@]2(C)Oc3c(C)c(O)c4c(O)c(c(CN5CCN(C)CC5)c(O)c4c3C2=O)NC(=O)/C(C)=C\C=C[C@@H](C)[C@@H](O)[C@H](C)[C@@H](O)[C@H](C)[C@H](OC(C)=O)[C@@H]1C`, in data set [7], the concentration at half-maximal activity (AC50) was 6.31 µM (inconclusive).
As for `Cc1cc(O)c(C)c(O)c1/C=N/NC(=O)c1cccnc1`, in data set [1], the half-inhibitory concentration (IC50) was 101 µM (active).
With `COc1cc(/C(C)=N/NC(=O)C(O)(c2ccccc2)c2ccccc2)ccc1O`, the IC50 in data set [1] was 104 µM (active).
Take `COc1ccccc1/C=C(/C(=O)OCC(=O)Nc1ccc(N(C)C)cc1)c1ccccc1`: the IC50 in data set [1] was 61 µM (active).
The same measure, in the same setting: the value for `CC(=O)NN1C(=O)/C(=C\c2ccc(O)cc2)SC1=S` was 121 µM (active).
For the molecule `CC1(C)CC(=O)C(/C=N/c2cccnc2)=C(O)C1`, the EC50 in data set [12] was 16.6 µM (active).
